Assay results published in article PMC8552049 (SLAS discovery : advancing life sciences R & D, 2021).
Where two headings read alike, the source gives them in different places. Each block holds one compound with its values, some of them ahead of it.

Key:
[1] = target: T1, RGS7/Gβ5/R7BP complex (Homo sapiens, UniProt P49802); test: TR-FRET assay of RGS7/Gβ5 interaction with R7BP, inhibitors mode; type: binding
T1 sequence (P49802 1-495): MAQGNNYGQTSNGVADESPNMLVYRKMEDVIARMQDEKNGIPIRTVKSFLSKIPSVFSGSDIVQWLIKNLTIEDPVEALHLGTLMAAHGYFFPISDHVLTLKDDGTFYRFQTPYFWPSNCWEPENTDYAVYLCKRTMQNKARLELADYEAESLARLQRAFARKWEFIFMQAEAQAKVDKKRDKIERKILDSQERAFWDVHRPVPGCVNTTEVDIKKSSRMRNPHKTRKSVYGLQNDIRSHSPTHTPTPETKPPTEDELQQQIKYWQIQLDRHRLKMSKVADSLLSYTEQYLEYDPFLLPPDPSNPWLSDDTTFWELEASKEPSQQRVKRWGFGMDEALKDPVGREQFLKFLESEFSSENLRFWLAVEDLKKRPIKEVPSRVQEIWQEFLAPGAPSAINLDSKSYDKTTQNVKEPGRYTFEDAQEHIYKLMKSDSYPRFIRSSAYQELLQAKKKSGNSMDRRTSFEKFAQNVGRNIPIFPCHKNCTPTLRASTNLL
T1 sequence (O14775 43-395 partner limits assumed): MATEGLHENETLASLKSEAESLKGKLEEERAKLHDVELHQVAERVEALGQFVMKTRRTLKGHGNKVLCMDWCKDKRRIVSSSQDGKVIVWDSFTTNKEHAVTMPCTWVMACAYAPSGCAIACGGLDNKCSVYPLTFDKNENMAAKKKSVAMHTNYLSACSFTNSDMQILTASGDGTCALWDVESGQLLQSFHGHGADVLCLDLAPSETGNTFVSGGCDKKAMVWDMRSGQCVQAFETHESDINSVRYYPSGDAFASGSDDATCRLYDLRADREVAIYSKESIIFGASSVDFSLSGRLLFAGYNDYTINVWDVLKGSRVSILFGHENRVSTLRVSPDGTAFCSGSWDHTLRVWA

[2] = target: T1, RGS7/Gβ5/R7BP complex; test: TR-FRET assay of RGS7/Gβ5 interaction with R7BP, activators mode; type: binding

SMILES: NCCc1cc(O)c(O)cc1O [6-hydroxydopamine]
IC50 ([1]; IC50, inhibition of complex formation, initial dose response studies): 7.65 ± 3.74 µM

IC50 [1]: 0.173 µM | maximum inhibition ([1]; tertiary screening, first HTS campaign, concentration response curves): 54.2 ± 0.84%
SMILES: O=C1CCCN1C(=S)C(=S)N1CCCC1=O [SR-01000319258–1, 1-[2-(2-oxopyrrolidin-1-yl)-2-sulfanylideneethanethioyl]pyrrolidin-2-one]

SMILES: NC(=O)c1cc([N+](=O)[O-])cc([N+](=O)[O-])c1 [nitromide]
EC50 [2]: 0.76 ± 0.1 µM
